Legend:
Italian ryegrass [1] = test: Test Example 4: herbicidal effect by soil treatment (Table 19, symbol K); type: in vivo, Italian ryegrass (Lolium multiflorum); details: amount of applied herbicide 320 g/ha
Summary of the method: (§1)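 Seeds were sown in sterilized diluvial soil and covered with about 1.5 cm of soil. An emulsion formulation diluted with water to a predetermined herbicide amount was sprayed evenly onto the soil surface. Plants grew in a greenhouse at 25° C. to 30° C., and the effect was scored three weeks after application using criteria from an earlier test.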

green foxtail [2] = test: Test Example 4: herbicidal effect by soil treatment (Table 19, symbol G); type: in vivo, green foxtail (Setaria viridis); details: amount of applied herbicide 320 g/ha
Summary of the method: as §1

redroot pigweed [3] = test: Test Example 4: herbicidal effect by soil treatment (Table 19, symbol N); type: in vivo, redroot pigweed (Amaranthus retroflexus); details: amount of applied herbicide 320 g/ha
Summary of the method: as §1

false cleavers [4] = test: Test Example 4: herbicidal effect by soil treatment (Table 19, symbol Q); type: in vivo, false cleavers (Galium spurium); details: amount of applied herbicide 320 g/ha
Summary of the method: as §1

wild oat [5] = test: Test Example 4: herbicidal effect by soil treatment (Table 19, symbol I); type: in vivo, wild oat (Avena fatua); details: amount of applied herbicide 320 g/ha
Summary of the method: as §1

redroot pigweed [6] = test: Test Example 5: herbicidal effect by foliage application, plastic box (Table 20, symbol N); type: in vivo, redroot pigweed (Amaranthus retroflexus); details: foliage application, 320 g/ha, three weeks after application
Summary of the method: (§2)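 Plants sown in sterilized diluvial soil and grown 14 days in a greenhouse at 25° C to 30° C, then sprayed on the foliage with the compound's emulsion diluted in water to a predetermined herbicide amount. Injury to weeds and crops scored three weeks after application on a visual rating scale.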

persian speedwell [7] = test: Test Example 4: herbicidal effect by soil treatment (Table 19, symbol R); type: in vivo, Persian speedwell (Veronica persica); details: amount of applied herbicide 320 g/ha
Summary of the method: as §1

rice flat sedge = test: Test Example 3: herbicidal effect by foliage application, Wagner pot (Table 18, symbol E); type: in vivo, rice flat sedge (Cyperus iria); details: 320 g/ha
Summary of the method: (§3)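 Plants were sown in alluvial soil held under 0.1–0.5 cm standing water and grown 14 days in a greenhouse at 25–30 °C. An emulsifiable formulation, water-diluted to the set dose, was then sprayed onto the foliage, and effects were scored three weeks later using previously defined criteria.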

windgrass [8] = test: Test Example 5: herbicidal effect by foliage application, plastic box (Table 20, symbol L); type: in vivo, windgrass (Apera spica-venti); details: foliage application, 320 g/ha, three weeks after application
Summary of the method: as §2

southern crabgrass [9] = test: Test Example 5: herbicidal effect by foliage application, plastic box (Table 20, symbol F); type: in vivo, southern crabgrass (Digitaria ciliaris); details: foliage application, 320 g/ha, three weeks after application
Summary of the method: as §2

Chinese sprangletop = test: Test Example 3: herbicidal effect by foliage application, Wagner pot (Table 18, symbol D); type: in vivo, chinese sprangletop (Leptochloa chinensis); details: 320 g/ha
Summary of the method: as §3

Italian ryegrass [10] = test: Test Example 5: herbicidal effect by foliage application, plastic box (Table 20, symbol K); type: in vivo, Italian ryegrass (Lolium multiflorum); details: foliage application, 320 g/ha, three weeks after application
Summary of the method: as §2

lambsquarters [11] = test: Test Example 5: herbicidal effect by foliage application, plastic box (Table 20, symbol O); type: in vivo, lambsquarters (Chenopodium album); details: foliage application, 320 g/ha, three weeks after application
Summary of the method: as §2

barnyard grass [12] = test: Test Example 3: herbicidal effect by foliage application, Wagner pot (Table 18, symbol H); type: in vivo, barnyard grass (Echinochloa crus-galli); details: 320 g/ha
Summary of the method: as §3

wild oat [13] = test: Test Example 5: herbicidal effect by foliage application, plastic box (Table 20, symbol I); type: in vivo, wild oat (Avena fatua); details: foliage application, 320 g/ha, three weeks after application
Summary of the method: as §2

green foxtail [14] = test: Test Example 5: herbicidal effect by foliage application, plastic box (Table 20, symbol G); type: in vivo, green foxtail (Setaria viridis); details: foliage application, 320 g/ha, three weeks after application
Summary of the method: as §2

velvetleaf [15] = test: Test Example 5: herbicidal effect by foliage application, plastic box (Table 20, symbol M); type: in vivo, velvetleaf (Abutilon theophrasti); details: foliage application, 320 g/ha, three weeks after application
Summary of the method: as §2

blackgrass [16] = test: Test Example 5: herbicidal effect by foliage application, plastic box (Table 20, symbol J); type: in vivo, blackgrass (Alopecurus myosuroides); details: foliage application, 320 g/ha, three weeks after application
Summary of the method: as §2

blackgrass [17] = test: Test Example 4: herbicidal effect by soil treatment (Table 19, symbol J); type: in vivo, blackgrass (Alopecurus myosuroides); details: amount of applied herbicide 320 g/ha
Summary of the method: as §1

windgrass [18] = test: Test Example 4: herbicidal effect by soil treatment (Table 19, symbol L); type: in vivo, windgrass (Apera spica-venti); details: amount of applied herbicide 320 g/ha
Summary of the method: as §1

southern crabgrass [19] = test: Test Example 4: herbicidal effect by soil treatment (Table 19, symbol F); type: in vivo, southern crabgrass (Digitaria ciliaris); details: amount of applied herbicide 320 g/ha
Summary of the method: as §1

velvetleaf [20] = test: Test Example 4: herbicidal effect by soil treatment (Table 19, symbol M); type: in vivo, velvetleaf (Abutilon theophrasti); details: amount of applied herbicide 320 g/ha
Summary of the method: as §1

false cleavers [21] = test: Test Example 5: herbicidal effect by foliage application, plastic box (Table 20, symbol Q); type: in vivo, false cleavers (Galium spurium); details: foliage application, 320 g/ha, three weeks after application
Summary of the method: as §2

barnyard grass [22] = test: Test Example 5: herbicidal effect by foliage application, plastic box (Table 20, symbol H); type: in vivo, barnyard grass (Echinochloa crus-galli); details: foliage application, 320 g/ha, three weeks after application
Summary of the method: as §2

persian speedwell [23] = test: Test Example 5: herbicidal effect by foliage application, plastic box (Table 20, symbol R); type: in vivo, Persian speedwell (Veronica persica); details: foliage application, 320 g/ha, three weeks after application
Summary of the method: as §2

barnyard grass [24] = test: Test Example 4: herbicidal effect by soil treatment (Table 19, symbol H); type: in vivo, barnyard grass (Echinochloa crus-galli); details: amount of applied herbicide 320 g/ha
Summary of the method: as §1

lambsquarters [25] = test: Test Example 4: herbicidal effect by soil treatment (Table 19, symbol O); type: in vivo, lambsquarters (Chenopodium album); details: amount of applied herbicide 320 g/ha
Summary of the method: as §1

chickweed [26] = test: Test Example 5: herbicidal effect by foliage application, plastic box (Table 20, symbol P); type: in vivo, common chickweed (Stellaria media); details: foliage application, 320 g/ha, three weeks after application
Summary of the method: as §2

chickweed [27] = test: Test Example 4: herbicidal effect by soil treatment (Table 19, symbol P); type: in vivo, common chickweed (Stellaria media); details: amount of applied herbicide 320 g/ha
Summary of the method: as §1

## COc1c(F)cccc1-c1sc2ccccc2c1-c1c(O)c(C)nn(C)c1=O [1-054]
Italian ryegrass [1]
  herbicidal effect rating, K: Italian ryegrass: 3 (Herbicidal rate of 40% or more and less than 70%)
Green foxtail [2]
  herbicidal effect rating, G: green foxtail: 0 (Herbicidal rate of 5% or less (almost no effect))
Redroot pigweed [3]
  herbicidal effect rating, N: redroot pigweed: 0 (Herbicidal rate of 5% or less (almost no effect))
False cleavers [4]
  herbicidal effect rating, Q: false cleavers: 0 (Herbicidal rate of 5% or less (almost no effect))
Wild oat [5]
  herbicidal effect rating, I: wild oat: 0 (Herbicidal rate of 5% or less (almost no effect))
Redroot pigweed [6]
  herbicidal effect grade, N: redroot pigweed: 5 (Herbicidal rate of 90% or more (almost completely withered))
Persian speedwell [7]
  herbicidal effect rating, R: persian speedwell: 0 (Herbicidal rate of 5% or less (almost no effect))
Rice flat sedge
  herbicidal effect on E (rice flat sedge), rating 0-5: 4 (Herbicidal rate of 70% or more and less than 90%)
Windgrass [8]
  herbicidal effect grade, L: windgrass: 0 (Herbicidal rate of 5% or less (almost no effect))
Southern crabgrass [9]
  herbicidal effect grade, F: southern crabgrass: 2 (Herbicidal rate of 20% or more and less than 40%)
Chinese sprangletop
  herbicidal effect on D (Chinese sprangletop), rating 0-5: 3 (Herbicidal rate of 40% or more and less than 70%)
Italian ryegrass [10]
  herbicidal effect grade, K: Italian ryegrass: 4 (Herbicidal rate of 70% or more and less than 90%)
Lambsquarters [11]
  herbicidal effect grade, O: lambsquarters: 5 (Herbicidal rate of 90% or more (almost completely withered))
Barnyard grass [12]
  herbicidal effect on H (barnyard grass), rating 0-5: 5 (Herbicidal rate of 90% or more (almost completely withered))
Wild oat [13]
  herbicidal effect grade, I: wild oat: 3 (Herbicidal rate of 40% or more and less than 70%)
Green foxtail [14]
  herbicidal effect grade, G: green foxtail: 4 (Herbicidal rate of 70% or more and less than 90%)
Velvetleaf [15]
  herbicidal effect grade, M: velvetleaf: 5 (Herbicidal rate of 90% or more (almost completely withered))
Blackgrass [16]
  herbicidal effect grade, J: blackgrass: 0 (Herbicidal rate of 5% or less (almost no effect))
Blackgrass [17]
  herbicidal effect rating, J: blackgrass: 3 (Herbicidal rate of 40% or more and less than 70%)
Windgrass [18]
  herbicidal effect rating, L: windgrass: 0 (Herbicidal rate of 5% or less (almost no effect))
Southern crabgrass [19]
  herbicidal effect rating, F: southern crabgrass: 0 (Herbicidal rate of 5% or less (almost no effect))
Velvetleaf [20]
  herbicidal effect rating, M: velvetleaf: 0 (Herbicidal rate of 5% or less (almost no effect))
False cleavers [21]
  herbicidal effect grade, Q: false cleavers: 4 (Herbicidal rate of 70% or more and less than 90%)
Barnyard grass [22]
  herbicidal effect grade, H: barnyard grass: 3 (Herbicidal rate of 40% or more and less than 70%)
Persian speedwell [23]
  herbicidal effect grade, R: persian speedwell: 1 (Herbicidal rate of 5% or more and less than 20%)
Barnyard grass [24]
  herbicidal effect rating, H: barnyard grass: 2 (Herbicidal rate of 20% or more and less than 40%)
Lambsquarters [25]
  herbicidal effect rating, O: lambsquarters: 0 (Herbicidal rate of 5% or less (almost no effect))
Chickweed [26]
  herbicidal effect grade, P: chickweed: 5 (Herbicidal rate of 90% or more (almost completely withered))
Chickweed [27]
  herbicidal effect rating, P: chickweed: 0 (Herbicidal rate of 5% or less (almost no effect))

## COc1c(C)cc(-c2sc3ccccc3c2-c2c(O)c(C)nn(C)c2=O)cc1C [1-074]
Italian ryegrass [1]
  herbicidal effect rating, K: Italian ryegrass: 0 (Herbicidal rate of 5% or less (almost no effect))
Green foxtail [2]
  herbicidal effect rating, G: green foxtail: 0 (Herbicidal rate of 5% or less (almost no effect))
Redroot pigweed [3]
  herbicidal effect rating, N: redroot pigweed: 0 (Herbicidal rate of 5% or less (almost no effect))
False cleavers [4]
  herbicidal effect rating, Q: false cleavers: 0 (Herbicidal rate of 5% or less (almost no effect))
Wild oat [5]
  herbicidal effect rating, I: wild oat: 0 (Herbicidal rate of 5% or less (almost no effect))
Redroot pigweed [6]
  herbicidal effect grade, N: redroot pigweed: 0 (Herbicidal rate of 5% or less (almost no effect))
Persian speedwell [7]
  herbicidal effect rating, R: persian speedwell: 3 (Herbicidal rate of 40% or more and less than 70%)
Rice flat sedge
  herbicidal effect on E (rice flat sedge), rating 0-5: 5 (Herbicidal rate of 90% or more (almost completely withered))
Windgrass [8]
  herbicidal effect grade, L: windgrass: 0 (Herbicidal rate of 5% or less (almost no effect))
Southern crabgrass [9]
  herbicidal effect grade, F: southern crabgrass: 0 (Herbicidal rate of 5% or less (almost no effect))
Chinese sprangletop
  herbicidal effect on D (Chinese sprangletop), rating 0-5: 0 (Herbicidal rate of 5% or less (almost no effect))
Italian ryegrass [10]
  herbicidal effect grade, K: Italian ryegrass: 4 (Herbicidal rate of 70% or more and less than 90%)
Lambsquarters [11]
  herbicidal effect grade, O: lambsquarters: 0 (Herbicidal rate of 5% or less (almost no effect))
Barnyard grass [12]
  herbicidal effect on H (barnyard grass), rating 0-5: 3 (Herbicidal rate of 40% or more and less than 70%)
Wild oat [13]
  herbicidal effect grade, I: wild oat: 0 (Herbicidal rate of 5% or less (almost no effect))
Green foxtail [14]
  herbicidal effect grade, G: green foxtail: 0 (Herbicidal rate of 5% or less (almost no effect))
Velvetleaf [15]
  herbicidal effect grade, M: velvetleaf: 0 (Herbicidal rate of 5% or less (almost no effect))
Blackgrass [16]
  herbicidal effect grade, J: blackgrass: 0 (Herbicidal rate of 5% or less (almost no effect))
Blackgrass [17]
  herbicidal effect rating, J: blackgrass: 0 (Herbicidal rate of 5% or less (almost no effect))
Windgrass [18]
  herbicidal effect rating, L: windgrass: 0 (Herbicidal rate of 5% or less (almost no effect))
Southern crabgrass [19]
  herbicidal effect rating, F: southern crabgrass: 0 (Herbicidal rate of 5% or less (almost no effect))
Velvetleaf [20]
  herbicidal effect rating, M: velvetleaf: 0 (Herbicidal rate of 5% or less (almost no effect))
False cleavers [21]
  herbicidal effect grade, Q: false cleavers: 0 (Herbicidal rate of 5% or less (almost no effect))
Barnyard grass [22]
  herbicidal effect grade, H: barnyard grass: 0 (Herbicidal rate of 5% or less (almost no effect))
Persian speedwell [23]
  herbicidal effect grade, R: persian speedwell: 5 (Herbicidal rate of 90% or more (almost completely withered))
Barnyard grass [24]
  herbicidal effect rating, H: barnyard grass: 0 (Herbicidal rate of 5% or less (almost no effect))
Lambsquarters [25]
  herbicidal effect rating, O: lambsquarters: 0 (Herbicidal rate of 5% or less (almost no effect))
Chickweed [26]
  herbicidal effect grade, P: chickweed: 5 (Herbicidal rate of 90% or more (almost completely withered))
Chickweed [27]
  herbicidal effect rating, P: chickweed: 0 (Herbicidal rate of 5% or less (almost no effect))

Source: patent US20230085307A1, “PYRIDAZINONE COMPOUND AND HERBICIDE” (NISSAN CHEMICAL CORPORATION, priority 2019, published 2023)
